Results: publication PMC4927298, “Olfactory channels associated with the Drosophila maxillary palp mediate short- and long-range attraction” (eLife, 2016)
Blank lines part the entries; values can stand above or below the compound they belong to.

Columns and labels:
Or71a (pb1B) = target: T1, Or71a (pb1B) (Drosophila melanogaster, UniProt Q9VUK5); test: single sensillum recording (SSR), dose-response; details: native pb1B neuron, agonist; odor dilution
T1 construct: native receptor in pb1B maxillary palp neuron of wild-type flies; with Odorant receptor coreceptor
T1 sequence (Q9VUK5 1-378): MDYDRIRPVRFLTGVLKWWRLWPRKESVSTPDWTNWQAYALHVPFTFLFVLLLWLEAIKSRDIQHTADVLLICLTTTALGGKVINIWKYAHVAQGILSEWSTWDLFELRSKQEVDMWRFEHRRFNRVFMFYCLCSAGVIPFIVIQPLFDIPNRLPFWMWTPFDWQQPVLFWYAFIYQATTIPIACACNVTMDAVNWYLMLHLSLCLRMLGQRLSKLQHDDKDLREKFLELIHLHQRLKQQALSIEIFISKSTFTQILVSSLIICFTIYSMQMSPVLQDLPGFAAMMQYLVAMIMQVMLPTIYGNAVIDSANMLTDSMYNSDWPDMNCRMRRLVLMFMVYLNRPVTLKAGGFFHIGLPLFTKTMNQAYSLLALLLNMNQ
T1 sequence (Q9VNB5 1-486 partner): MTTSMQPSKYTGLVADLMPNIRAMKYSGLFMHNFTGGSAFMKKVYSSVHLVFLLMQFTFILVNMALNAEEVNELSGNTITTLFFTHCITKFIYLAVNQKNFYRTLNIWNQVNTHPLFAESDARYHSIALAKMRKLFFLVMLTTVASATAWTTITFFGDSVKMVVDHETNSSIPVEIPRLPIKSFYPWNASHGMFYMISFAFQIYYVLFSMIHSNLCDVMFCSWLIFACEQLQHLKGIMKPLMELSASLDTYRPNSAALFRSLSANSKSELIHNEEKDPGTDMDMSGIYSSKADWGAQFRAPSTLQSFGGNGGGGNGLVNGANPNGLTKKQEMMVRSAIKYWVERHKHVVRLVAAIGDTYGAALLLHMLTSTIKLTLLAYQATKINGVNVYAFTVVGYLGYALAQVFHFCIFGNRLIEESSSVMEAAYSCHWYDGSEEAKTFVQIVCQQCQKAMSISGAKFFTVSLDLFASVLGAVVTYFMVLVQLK
From the text: single sensillum recording (SSR), dose-response on Or71a (pb1B)

Or67a = target: T2, Or67a (Drosophila melanogaster, UniProt Q9VT08); test: SSR and GC-SSR, dose-response; details: native antennal neuron, agonist; odor dilution
T2 construct: native receptor in antennal neuron (ab10) of wild-type flies; with Odorant receptor coreceptor
T2 sequence (Q9VT08 1-407): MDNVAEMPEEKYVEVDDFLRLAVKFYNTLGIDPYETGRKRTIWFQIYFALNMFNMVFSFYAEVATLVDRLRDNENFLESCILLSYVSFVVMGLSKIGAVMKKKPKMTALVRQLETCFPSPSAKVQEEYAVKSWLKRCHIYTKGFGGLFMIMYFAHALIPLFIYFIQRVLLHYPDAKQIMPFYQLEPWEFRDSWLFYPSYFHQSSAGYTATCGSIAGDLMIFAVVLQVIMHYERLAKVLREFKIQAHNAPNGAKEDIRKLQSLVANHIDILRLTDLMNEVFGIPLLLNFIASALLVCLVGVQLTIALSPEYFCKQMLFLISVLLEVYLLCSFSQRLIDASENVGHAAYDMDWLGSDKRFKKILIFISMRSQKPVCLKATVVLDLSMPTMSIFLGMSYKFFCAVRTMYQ
T2 sequence (Q9VNB5 1-486 partner): T1 sequence (Q9VNB5 1-486 partner)

Or85d (pb3B) = target: T3, Or85d (pb3B) (Drosophila melanogaster, UniProt Q9VHQ2); test: single sensillum recording (SSR), dose-response; details: native pb3B neuron, agonist; odor dilution
T3 construct: native receptor in pb3B maxillary palp neuron of wild-type flies; with Odorant receptor coreceptor
T3 sequence (Q9VHQ2 1-412): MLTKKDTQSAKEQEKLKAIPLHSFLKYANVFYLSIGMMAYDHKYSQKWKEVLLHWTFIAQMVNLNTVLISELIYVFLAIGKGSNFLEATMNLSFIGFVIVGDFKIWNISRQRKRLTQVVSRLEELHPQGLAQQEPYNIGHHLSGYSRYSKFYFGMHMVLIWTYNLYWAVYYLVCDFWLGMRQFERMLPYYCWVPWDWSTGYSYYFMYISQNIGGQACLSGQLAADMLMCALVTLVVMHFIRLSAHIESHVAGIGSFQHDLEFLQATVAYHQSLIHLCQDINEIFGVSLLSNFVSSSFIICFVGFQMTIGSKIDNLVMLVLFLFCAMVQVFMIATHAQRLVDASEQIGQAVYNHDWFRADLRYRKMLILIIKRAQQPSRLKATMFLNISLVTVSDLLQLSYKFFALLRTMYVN
T3 sequence (Q9VNB5 1-486 partner): T1 sequence (Q9VNB5 1-486 partner)
From the text: single sensillum recording (SSR), dose-response on Or85d (pb3B)

Or46a (pb2B) = target: T4, Or46a (pb2B) (Drosophila melanogaster, UniProt P81919); test: single sensillum recording (SSR), dose-response; details: native pb2B neuron, agonist; odor dilution
T4 construct: native receptor in pb2B maxillary palp neuron of wild-type flies; with Odorant receptor coreceptor
T4 sequence (P81919 1-381): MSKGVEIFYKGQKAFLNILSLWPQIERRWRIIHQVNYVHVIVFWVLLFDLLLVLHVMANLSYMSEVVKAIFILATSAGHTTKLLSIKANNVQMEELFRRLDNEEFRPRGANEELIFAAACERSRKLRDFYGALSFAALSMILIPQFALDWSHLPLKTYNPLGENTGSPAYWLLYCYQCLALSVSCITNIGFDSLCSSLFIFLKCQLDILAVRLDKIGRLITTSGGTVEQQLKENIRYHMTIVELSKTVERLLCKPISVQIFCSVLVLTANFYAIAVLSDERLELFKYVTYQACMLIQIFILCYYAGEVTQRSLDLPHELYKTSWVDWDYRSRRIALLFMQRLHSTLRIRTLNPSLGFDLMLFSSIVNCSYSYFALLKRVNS
T4 sequence (Q9VNB5 1-486 partner): T1 sequence (Q9VNB5 1-486 partner)
From the text: single sensillum recording (SSR), dose-response on Or46a (pb2B)

Or42a (pb1A) = target: T5, Or42a (pb1A) (Drosophila melanogaster, UniProt Q9V9I2); test: single sensillum recording (SSR), dose-response; details: native pb1A neuron, agonist; odor dilution
T5 construct: native receptor in pb1A maxillary palp neuron of wild-type flies; neuron-receptor match not tested by expression; with Odorant receptor coreceptor
T5 sequence (Q9V9I2 1-406): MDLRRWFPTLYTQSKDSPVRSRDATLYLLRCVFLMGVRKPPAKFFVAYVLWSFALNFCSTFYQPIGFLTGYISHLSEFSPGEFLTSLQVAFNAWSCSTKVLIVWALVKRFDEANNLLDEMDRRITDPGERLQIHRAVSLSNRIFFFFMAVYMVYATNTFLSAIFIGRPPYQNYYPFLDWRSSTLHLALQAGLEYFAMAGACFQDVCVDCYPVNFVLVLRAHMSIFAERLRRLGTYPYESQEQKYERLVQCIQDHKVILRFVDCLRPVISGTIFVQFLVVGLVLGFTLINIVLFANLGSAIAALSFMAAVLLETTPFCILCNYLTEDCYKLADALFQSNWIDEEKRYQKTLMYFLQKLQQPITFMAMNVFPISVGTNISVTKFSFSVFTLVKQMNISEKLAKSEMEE
T5 sequence (Q9VNB5 1-486 partner): T1 sequence (Q9VNB5 1-486 partner)
From the text: single sensillum recording (SSR), dose-response on Or42a (pb1A)

Or59c (pb3A) = target: T6, Or59c (pb3A) (Drosophila melanogaster, UniProt Q9W1P7); test: single sensillum recording (SSR), dose-response; details: native pb3A neuron, agonist; odor dilution
T6 construct: native receptor in pb3A maxillary palp neuron of wild-type flies; with Odorant receptor coreceptor
T6 sequence (Q9W1P7 1-411): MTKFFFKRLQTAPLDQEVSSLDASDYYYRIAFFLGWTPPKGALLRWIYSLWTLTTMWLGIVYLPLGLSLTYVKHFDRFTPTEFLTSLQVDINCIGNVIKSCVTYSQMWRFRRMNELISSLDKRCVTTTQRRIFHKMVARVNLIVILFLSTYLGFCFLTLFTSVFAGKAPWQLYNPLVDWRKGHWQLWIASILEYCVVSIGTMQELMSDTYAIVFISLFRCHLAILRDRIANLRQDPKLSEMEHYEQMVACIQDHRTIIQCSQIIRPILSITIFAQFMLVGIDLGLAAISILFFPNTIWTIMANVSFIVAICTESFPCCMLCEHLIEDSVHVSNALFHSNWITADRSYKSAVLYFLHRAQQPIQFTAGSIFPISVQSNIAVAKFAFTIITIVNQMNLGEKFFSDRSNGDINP
T6 sequence (Q9VNB5 1-486 partner): T1 sequence (Q9VNB5 1-486 partner)
From the text: single sensillum recording (SSR), dose-response on Or59c (pb3A)

Or85a = target: T7, Or85a (Drosophila melanogaster, UniProt Q9VHS4); test: SSR and GC-SSR, dose-response; details: native antennal ab2B neuron, agonist; odor dilution
T7 construct: native receptor in antennal ab2B neuron of wild-type flies; with Odorant receptor coreceptor
T7 sequence (Q9VHS4 1-397): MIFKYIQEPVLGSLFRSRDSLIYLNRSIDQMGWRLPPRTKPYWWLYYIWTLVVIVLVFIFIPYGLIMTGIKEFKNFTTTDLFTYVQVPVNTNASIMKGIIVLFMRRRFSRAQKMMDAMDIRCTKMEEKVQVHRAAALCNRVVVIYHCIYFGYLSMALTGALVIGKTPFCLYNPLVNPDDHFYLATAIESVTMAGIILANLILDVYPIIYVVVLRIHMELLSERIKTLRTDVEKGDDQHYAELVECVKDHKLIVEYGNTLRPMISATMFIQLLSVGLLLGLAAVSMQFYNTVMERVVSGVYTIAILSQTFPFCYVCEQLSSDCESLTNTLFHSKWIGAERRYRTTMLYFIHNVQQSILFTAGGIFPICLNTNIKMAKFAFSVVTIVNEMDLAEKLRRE
T7 sequence (Q9VNB5 1-486 partner): T1 sequence (Q9VNB5 1-486 partner)

- Detection threshold (Or71a (pb1B)): 10^-7 dilution
SMILES: CCc1ccc(O)c(OC)c1 [4-ethylguaiacol]

- Detection threshold (Or67a): 10^-5 dilution
- Detection threshold (Or85d (pb3B)): 10^-7 dilution
SMILES: CCC(=O)OCCc1ccccc1 [Phenethyl propionate]

SMILES: Oc1ccccc1 [Phenol]
- Detection threshold (Or46a (pb2B)): 10^-7 dilution

- Detection threshold (Or42a (pb1A)): 10^-7 dilution
SMILES: C=CCC(=O)CC [5-hexen-3-one]

- Detection threshold (Or85d (pb3B)): 10^-7 dilution
SMILES: CC(=O)OCCc1ccccc1 [2-Phenethyl acetate]

- Detection threshold (Or71a (pb1B)): 10^-7 dilution
SMILES: C=CCc1ccc(OC)c(OC)c1 [Methyleugenol]

- Detection threshold (Or59c (pb3A)): 10^-4 dilution
- Detection threshold (Or85a): 10^-5 dilution
SMILES: CCCCOC(=O)CC(C)O (stereo not drawn) [Butyl 3-hydroxy butyrate]
